Reference: patent publication US10792282B2, “Protein kinase C inhibitors and uses thereof” (Rigel Pharmaceuticals, Inc., priority 2013, dated 2020)
Read-outs that look alike come from different tables or passages of the source.

Tested on: PKC mediated IL-2 production
Experiment: IL-2 ELISA, human primary T cell, anti CD3+CD28+ (whole cell functional assay)
Assay type: cell-based
Description: Human primary T cells were prepared as follows. Fresh PBMC's from All Cells (Cat # PB002) were re-suspended in RPMI (RPMI-1640 with L-Glutamine; Mediatech, Inc., Herndon Va., cat. #10-040-CM) with 10% FBS and seeded into flasks and incubated at 37° C. for 2 hours to allow the monocytes to adhere. The non-adherent cells were then centrifuged and re-suspended in RPMI medium containing 40 U/ml IL2 and seeded into a flask pre-coated with 1 μg/ml aCD3 and 5 ug/ml aCD28 (Anti-Human CD3, BD Pharmingen Catalog #555336, Anti-Human CD28, Beckman Coulter Catalog # IM1376). The cells were stimulated for 3-4 days, then transferred to a fresh flask and maintained in RPMI (RPMI-1640 with L-Glutamine; Mediatech, Inc., Herndon Va., cat. #10-040-CM) with 10% FBS and 40 U/ml IL-2.
(§1) Human primary T cells (100,000 cells per well) were pre-incubated with or without test compound in RPMI-1640 with L-Glutamine and 10% FBS for 1 hour at 37° C. Cells were then stimulated by transferring them to round-bottom 96-well plates pre-coated with 1 μg/ml αCD3 and 5 μg/ml αCD28. For counter assay, cells were instead stimulated by adding 8× stock solutions of PMA and ionomycin in RPMI-1640 with L-Glutamine and 10% FBS (for final concentrations of 0.5 ng/ml PMA and 0.1 μM ionomycin, both from Calbiochem). Cells were incubated at 37° C. for 24 hours before 100 μL supernatants were harvested for quantification of IL-2 by ELISA using Human IL-2 Duoset ELISA Kit from R and D Systems, Cat. # DY202E.
Compounds 1-90 were tested in a whole cell functional assay for PKC mediated IL-2 production as follows. Human primary T cell isolation and culture: Human primary T cells were prepared as follows. Whole blood was obtained from a healthy volunteer, mixed 1:1 with PBS, layered on to Ficoll Hypaque (Amersham Pharmacia Biotech, Piscataway, N.J., Catalog #17-1440-03) in 2:1 blood/PBS:ficoll ratio and centrifuged for 30 minutes at 4° C. at 1750 rpm. The cells at the serum: ficoll interface were recovered and washed twice with 5 volumes of PBS. These freshly isolated human peripheral blood mononuclear cells were cultured in Yssel's medium containing 40 U/ml IL2 in a flask pre-coated with 1 μg/ml αCD3 and 5 μg/ml αCD28 (Anti-Human CD3, BD Pharmingen Catalog #555336, Anti-Human CD28, Beckman Coulter Catalog # IM1376). The cells were stimulated for 3-4 days, then transferred to a fresh flask and maintained in RPMI (RPMI-1640 with L-Glutamine; Mediatech, Inc., Herndon Va., cat. #10-040-CM) with 10% FBS and 40 U/ml IL-2. The primary T-cells were then washed twice with PBS to remove the IL-2.
as §1, with “Primary T cell stimulation and IL2 ELISA: Human primary” for “Human primary”, “compound in Yssel's medium for 1” for “compound in RPMI-1640 with L-Glutamine and 10% FBS for 1”, “ionomycin in Yssels (for final” for “ionomycin in RPMI-1640 with L-Glutamine and 10% FBS (for final”, “and 0.1 uM ionomycin, both” for “and 0.1 μM ionomycin, both”

[1] = Homo sapiens, T-cell, 24 h, IL-2 production, human primary T cells stimulated with αCD3 and αCD28, 24 hours, IL-2 by ELISA, read-out: EC50
[2] = Homo sapiens, T-cell, human primary T cells stimulated with αCD3 and αCD28, IL-2 by ELISA, read-out: EC50 (blocked IL-2 production)
[3] = IL-2 production, human primary T cells stimulated with αCD3 and αCD28, 24 hours, IL-2 by ELISA, read-out: EC50

With `Cn1nnn(-c2cc(Nc3ncc(F)c(NC4CC5CCCN5C(C)(C)C4)n3)ccc2OC2CCOCC2)c1=O` (racemic) [Compound 51, 1-(5-(5-fluoro-4-(octahydro-5,5-dimethylindolizin-7-ylamino)pyrimidin-2-ylamino)-2-(tetrahydro-2H-pyran-4-oxy)phenyl)-4-methyl-1H-tetrazol-5(4H)-one] the EC50 [1] was under 0.5 µM and the EC50 [2] was under 10 µM.
Work on `Cn1nnn(-c2cc(Nc3ncc(C#N)c(N[C@@H]4C[C@@H]5CCCN5C(C)(C)C4)n3)c(F)cc2OCCO)c1=O` [Compound 78, 4-((7R,8aS)-octahydro-5,5-dimethylindolizin-7-ylamino)-2-(4-(2-hydroxyethoxy)-2-fluoro-5-(4,5-dihydro-4-methyl-5-oxotetrazol-1-yl)phenylamino)pyrimidine-5-carbonitrile] yielded an EC50 [1] of under 0.1 µM and an EC50 [2] of under 10 µM.
Compound `Cn1nnn(-c2cc(Nc3ncc(F)c(NC4CC5CCCN5C(C)(C)C4)n3)ccc2OC2COC2)c1=O` (single isomer, unassigned) [Compound 39, 1-(5-(5-fluoro-4-(octahydro-5,5-dimethylindolizin-7-ylamino)pyrimidin-2-ylamino)-2-(oxetan-3-yloxy)phenyl)-4-methyl-1H-tetrazol-5(4H)-one] has an EC50 [2] of under 10 µM and an EC50 [3] of under 0.5 µM.
`Cc1nnnn1-c1cc(Nc2ncc(F)c(NC3CCN4CCCC4C3)n2)c(F)cc1C1CC1` (racemic) [Compound 28, (±)-N2-(4-cyclopropyl-2-fluoro-5-(5-methyl-1H-tetrazol-1-yl)phenyl)-5-fluoro-n^4-(octahydroindolizin-7-yl)pyrimidine-2,4-diamine] was tested, and the EC50 [1] was under 0.1 µM and the EC50 [2] was under 10 µM.
`Cn1nnn(-c2cc(Nc3ncc(F)c(N[C@@H]4C[C@@H]5C[C@@H](F)CN5C(C)(C)C4)n3)c(F)cc2C2CC2)c1=O` [Compound 64, 1-(5-(4-((2R,7R,8aR)-2-fluoro-octahydro-5,5-dimethylindolizin-7-ylamino)-5-fluoropyrimidin-2-ylamino)-2-cyclopropyl-4-fluorophenyl)-4-methyl-1H-tetrazol-5(4H)-one] gave an EC50 [1] of under 0.5 µM and an EC50 [2] of under 10 µM.
`Cn1nnn(-c2cc(Nc3ncc(F)c(NC4CC5CCCN5C(C)(C)C4)n3)ccc2O[C@H]2CCOC2)c1=O` (stereo partly drawn) [Compound 49, 1-(2-((S)-tetrahydrofuran-3-yloxy)-5-(5-fluoro-4-(octahydro-5,5-dimethylindolizin-7-ylamino)pyrimidin-2-ylamino)phenyl)-4-methyl-1H-tetrazol-5(4H)-one] was tested, and the EC50 [1] was under 0.1 µM and the EC50 [2] was under 10 µM.
In the case of `CC1(C)Oc2ccc(Nc3ncc(F)c(NC4CC5CCCN5C(C)(C)C4)n3)cc2-n2nnnc21` (centres unmarked) [Compound 3, N2-(4,4-dimethyl-4H-benzo[b]tetrazolo[1,5-d][1,4]oxazin-8-yl)-5-fluoro-N4-(octahydro-5,5-dimethylindolizin-7-amine)pyrimidine-2,4-diamine], the EC50 [3] is reported as under 1 µM.
`CC1(C)CC(Nc2nc(Nc3cc(-n4cnnn4)c(C4CC4)cc3F)ncc2F)CC2CCCN21` (racemic) [Compound 55, (±)-N2-(4-cyclopropyl-2-fluoro-5-(1H-tetrazol-1-yl)phenyl)-5-fluoro-n^4-(octahydro-5,5-dimethylindolizin-7-yl)pyrimidine-2,4-diamine] gave an EC50 [3] of under 0.5 µM.
Work on `CC1(C)CC(Nc2nc(Nc3ccc(O[C@H]4CCOC4)c(C#N)c3)ncc2F)CC2CCCN21` (single isomer, unassigned) [Compound 62] yielded an EC50 [3] of under 0.5 µM.
`Cn1nnn(-c2cc(Nc3ncc(F)c(N[C@H]4C[C@H]5CCCN5C(C)(C)C4)n3)c(F)cc2C2CC2)c1=O` [Compound 18, 1-(5-(4-((7S,8aR)-octahydro-5,5-dimethylindolizin-7ylamino)-5-fluoropyrimidin-2-ylamino)-2-cyclopropyl-4-fluorophenyl)-4-methyl-1H-tetrazol-5(4H)-one] gave an EC50 [1] of under 1 µM and an EC50 [2] of under 10 µM.
`CC(C)N1CCC(Oc2ccc(Nc3ncc(F)c(NC4CC5CCCN5C(C)(C)C4)n3)cc2OC(F)F)CC1` (centres unmarked) [Compound 7, (R/S, S/R, R/R, S/S)—N^2-(4-(1-isopropylpiperidin-4-yloxy)-3-(difluoromethoxy)phenyl)-5-fluoro-N^4-(octahydro-5,5-dimethylindolizin-7-yl)pyrimidine-2,4-diamine] showed an EC50 [3] of under 10 µM.
With `CC1(C)CC(Nc2nc(Nc3ccc(OC4CCOCC4)c(C#N)c3)ncc2F)CC2CCCN21` (single isomer, unassigned) [Compound 41, 5-(5-fluoro-4-(octahydro-5,5-dimethylindolizin-7-ylamino)pyrimidin-2-ylamino)-2-(tetrahydro-2H-pyran-4-yloxy)benzonitrile] the EC50 [1] was under 0.5 µM and the EC50 [2] was under 10 µM.
`COc1cc(Nc2ncc(F)c(NC3CC4CCCN4C(C)(C)C3)n2)cc(-n2nnnc2C)c1` (centres unmarked) [Compound 12, (R/S, S/R, R/R, S/S)-5-fluoro-N4-(octahydro-5,5-dimethylindolizin-7-yl)N2-(3-methoxy-5-(5-methyl-1H-tetrazol-1-yl)phenyl)pyrimidine-2,4-diamine] gave an EC50 [3] of under 1 µM.
Work on `CC(=O)N(C)c1cc(Nc2ncc(F)c(NC3CC(C)(C)N4CCCC4C3C)n2)c(F)cc1C1CC1` (centres unmarked) [Compound 73] yielded an EC50 [3] of under 0.5 µM.
Compound `CC1(C)Oc2ccc(Nc3ncc(F)c(NC4CC5CCCN5C(C)(C)C4)n3)cc2-n2nnnc21` (centres unmarked) [Compound 4, N2-(4,4-dimethyl-4H-benzo[b]tetrazolo[1,5-d][1,4]oxazin-8-yl)-5-fluoro-N4-(octahydro-5,5-dimethylindolizin-7-amine)pyrimidine-2,4-diamine] has an EC50 [3] of under 10 µM.
Work on `C[C@@H](O)COc1cc(F)c(Nc2ncc(C#N)c(N[C@@H]3C[C@@H]4CCCN4C(C)(C)C3)n2)cc1-n1nnn(C)c1=O` [Compound 90, 4-((7R,8aS)-octahydro-5,5-dimethylindolizin-7-ylamino)-2-(4-((R)-2-hydroxypropoxy)-2-fluoro-5-(4,5-dihydro-4-methyl-5-oxotetrazol-1-yl)phenylamino)pyrimindine-5-carbonitrile] yielded an EC50 [1] of under 0.1 µM and an EC50 [2] of under 10 µM.
`CC(C)Oc1cc(F)c(Nc2ncc(F)c(N[C@@H]3C[C@@H]4CCCN4C(C)(C)C3)n2)cc1-n1nnn(C)c1=O` [Compound 23, 1-(5-(4-((7R,8aS)-5,5-dimethyl-octahydroindolizin-7-ylamino)-5-fluoropyrimidin-2-ylamino)-4-fluoro-2-isopropoxyphenyl)-4-methyl-1H-tetrazol-5(4H)-one] gave an EC50 [1] of under 0.1 µM and an EC50 [2] of under 10 µM.
`CC1(C)C[C@H](Nc2nc(Nc3cc(-n4cnnn4)c(C4CC4)cc3F)ncc2F)C[C@@H]2CCCN21` (racemic) [Compound 53, (±)-N2-(4-cyclopropyl-2-fluoro-5-(1H-tetrazol-1-yl)phenyl)-5-fluoro-n^4-(octahydro-5,5-dimethylindolizin-7-yl)pyrimidine-2,4-diamine] showed an EC50 [2] of under 10 µM.
`Cn1nnn(-c2cc(Nc3ncc(F)c(N[C@H]4C[C@@H]5CCC(=O)N5C(C)(C)C4)n3)c(F)cc2C2CC2)c1=O` (racemic) [Compound 32, 1-(5-(5-fluoro-4-(hexahydro-5,5-dimethylindolizin-3(5H)-one-7-ylamino)pyrimidin-2-ylamino)-2-cyclopropyl-4-fluorophenyl)-4-methyl-1H-tetrazol-5(4H)-one] was tested, and the EC50 [1] was under 10 µM and the EC50 [2] was under 10 µM.
With `Cn1nnn(-c2cc(Nc3ncc(F)c(NC4CCN5CCCC5C4)n3)c(F)cc2C2CC2)c1=O` (centres unmarked) [Compound 29] the EC50 [3] was under 10 µM.
`CC1C(Nc2nc(Nc3cc(OC(F)F)c(C4CC4)cc3F)ncc2F)CC(C)(C)N2CCCC12` (centres unmarked) [Compound 75] gave an EC50 [3] of under 0.5 µM.
